Legend:
[1] = biological target: T1, Protein Kinase A (Bos taurus, UniProt P00517); experiment: Kinase selectivity assay Protein Kinase A; format: biochemical, bovine
T1 construct: purified from bovine heart; purchased Upstate Biotech 14-114; host or cells: bovine heart (tissue)
Description: (§1) Assays to test compound inhibition of other kinases were preformed using methods that measure the amount of phosphorylation of a biotinylated peptide substrate. Biotinylated peptide substrates were selected from the literature as appropriate for the enzyme being evaluated. The general procedure used to assay for kinase activity is as follows: a kinase reaction mix was prepared in 50 mM Tris-HCl pH=8, 10 mM MgCl2, 0.1 mM Na3VO4, 1 mM DTT, 10 μM ATP, 0.25–1 μM biotinylated peptide substrate, 0.2–0.8 μCuries per well ^33P-γ-ATP (2000–3000 Ci/mmol). Assay conditions vary slightly for each protein kinase, for example, insulin receptor kinase requires 10 mM MnCl2 for activity and Calmodulin-dependent protein kinase requires calmodulin and 2 mM CaCl2. The reaction mixture was dispensed into the wells of a streptavidin coated Flashplate and 1 μL test compound in 100% DMSO was added to a 100 μL reaction volume resulting in a final concentration of 1% DMSO in the reaction. Enzyme was diluted in 50 mM Tris-HCl pH=8.0, 0.1% BSA and added to each well. The reaction was incubated for one hour at 30° C. in the presence of a test compound. […] The plate was read on a scintillation counter to determine ^33P-γ-ATP incorporated into the immobilized peptide substrate. […] A maximum and minimum signal for the assay was determined on each plate. […]

[2] = biological target: T2, MAP Kinase ERK-2 (Rattus norvegicus, UniProt P63086); experiment: Kinase selectivity assay MAP Kinase ERK-2; format: biochemical
T2 construct: polyhistidine (N); purchased BIOMOL SE-137; host or cells: E. coli
T2 sequence (P63086 whole entry): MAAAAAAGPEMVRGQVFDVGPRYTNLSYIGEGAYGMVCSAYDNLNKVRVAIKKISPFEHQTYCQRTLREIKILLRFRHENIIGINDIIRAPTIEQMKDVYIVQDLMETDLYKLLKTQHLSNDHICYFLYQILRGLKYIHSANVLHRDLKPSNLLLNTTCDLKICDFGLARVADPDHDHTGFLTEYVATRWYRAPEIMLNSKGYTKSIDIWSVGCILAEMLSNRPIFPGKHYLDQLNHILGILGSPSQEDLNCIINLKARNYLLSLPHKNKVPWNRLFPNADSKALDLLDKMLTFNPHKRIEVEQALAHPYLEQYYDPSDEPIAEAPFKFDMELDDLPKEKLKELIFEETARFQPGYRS
Description: as §1

[3] = test system: HeLa cervical adenocarcinoma; experiment: Inhibition of cell proliferation, 14C-thymidine incorporation, HeLa; format: cell-based; details: Homo sapiens
Description: (§2) The ability of a test compound to inhibit the proliferation of cell growth was determined by measuring incorporation of ^14C-labelled thymidine into newly synthesized DNA within the cells. This method was used on cell lines derived from carcinomas originating from several tissues such as HeLa cervical adenocarcinoma (American Type Culture Collection (ATCC), Virginia, Cat. #CCL-2), HCT-116 colon carcinoma (CCL-247), MDA-MB-231 (Xenogen Corp.), PC-3 prostate adenocarcinoma (ATCC CRL-1435) and A375 malignant melanoma (ATCC CRL-1619).
(§3) Using this method, the effect of a compound on cell growth of cells with many different phenotypes can be determined. Cells were trypsinized and counted and 3000–8000 cells were added to each well of a 96-well CytoStar tissue culture treated scintillating microplate (Amersham #RPNQ0160) in complete medium in a volume of 100 μl. Cells were incubated for 24 hours in complete medium at 37° C. in an atmosphere containing 5% CO2. 1 μL of test compound in 100% DMSO was then added to the wells of the plate. DMSO only was added to control wells. Cells were incubated for 24 more hours in complete medium at 37° C. in an atmosphere containing 5% CO2. […] The degree of methyl ^14C-thymidine incorporation was quantified on a Packard Top Count.

[4] = test system: HCT-116 colon carcinoma; experiment: Inhibition of cell proliferation, 14C-thymidine incorporation, HCT-116; format: cell-based; details: Homo sapiens
Description: as §2, §3

Structure (SMILES) | IC50 [1] | IC50 [2] | IC50 [3] | IC50 [4]
OCCCNc1cc(-c2ncnc(Nc3cccc(Cl)c3)n2)ccn1 [Compound 2, 3-((4-(4-((3-chlorophenyl)amino)-1,3,5-triazin-2-yl)-2-pyridinyl)amino)-1-propanol] | > 100000 nM | > 10000 nM | 105 nM | 48 nM
OCCCNc1cncc(-c2ncnc(Nc3cccc(Cl)c3)n2)c1 [Compound 1, 3-((5-(4-((3-chlorophenyl)amino)-1,3,5-triazin-2-yl)-3-pyridinyl)amino)-1-propanol] | > 100000 nM | > 100000 nM | 298 nM | 278 nM

Source: patent US7205298B2, “Substituted triazine kinase inhibitors” (Janssen Pharmaceutica N.V., priority 2002, dated 2007)
